Results taken from patent publication US10301284B2, “Therapeutic inhibitory compounds” (LifeSci Pharmaceuticals, Inc., priority 2016, dated 2019).
Read-outs that look alike come from different tables or passages of the source.

Target: human Plasma Kallikrein (Homo sapiens (Human), UniProt P03952)
Assay: In vitro enzyme inhibition of human plasma kallikrein (Pro-Phe-Arg-AMC cleavage)
Type: biochemical
Description: The ability of the compounds disclosed herein to inhibit human plasma kallikrein activity was quantified according to the procedures below.
A 10 mM solution of the test compound was made in DMSO. This solution was serially diluted 1:5 in DMSO to yield 2000, 400, 80, 16, 3.2, 0.64, 0.128, 0.0256 and 0.00512 μM compound test solutions. A control tube containing only DMSO is included. 16 μL of each compound test solution was combined with 384 μL of assay buffer (50 mM Tris-HCl pH 7.5, 150 mM NaCl, 0.01% Triton X-100) to yield a “4× test compound buffer stock”.
Separately, a 40 nM solution of human Plasma Kallikrein (Abcam) and a 93.6 μM solution Pro-Phe-Arg-AMC (Bachem) were made using assay buffer. These solutions are hereby referred to as 4×hPK and 2×PFR-AMC, respectively.
60 μL of each 4× test compound buffer stock was combined with 60 μL of 4×hPK to yield 120 μL of “2× test compound buffer stock/2×hPK”. 50 μL was removed from this mixture and placed into duplicate wells on a Microfluor 1Black U-bottom microtiter plate (Thermo Scientific). This plate was incubated for 5 minutes at 37° C. To each well, 50 μL of pre-warmed 2×PFR-AMC was added to start the enzymatic reaction. Cleavage of PFR-AMC was monitored in a Biotek Synergy H4 reader set at 37° C. Readings are taken every 43 seconds for 1 hour. The highest mean velocity over 20 reads (˜15 minutes) is used to calculate the IC50. The IC50 is calculated using the Gen5 (Biotek Instruments).
The ability of the compounds listed in Table 2 to inhibit human plasma kallikrein activity was determined.

[1] = human plasma kallikrein, PFR-AMC substrate, 37° C., read-out: hPK IC50

Sequence of human Plasma Kallikrein (P03952 391-638 limits assumed): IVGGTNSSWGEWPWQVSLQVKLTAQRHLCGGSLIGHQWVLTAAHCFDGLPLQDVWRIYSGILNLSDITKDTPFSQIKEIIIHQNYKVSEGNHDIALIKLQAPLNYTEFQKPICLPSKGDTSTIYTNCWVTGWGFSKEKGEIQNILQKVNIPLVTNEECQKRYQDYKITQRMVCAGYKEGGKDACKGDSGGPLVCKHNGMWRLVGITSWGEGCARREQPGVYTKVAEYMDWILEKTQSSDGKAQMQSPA
Sequence of human Plasma Kallikrein (P03952 20-390 partner limits assumed): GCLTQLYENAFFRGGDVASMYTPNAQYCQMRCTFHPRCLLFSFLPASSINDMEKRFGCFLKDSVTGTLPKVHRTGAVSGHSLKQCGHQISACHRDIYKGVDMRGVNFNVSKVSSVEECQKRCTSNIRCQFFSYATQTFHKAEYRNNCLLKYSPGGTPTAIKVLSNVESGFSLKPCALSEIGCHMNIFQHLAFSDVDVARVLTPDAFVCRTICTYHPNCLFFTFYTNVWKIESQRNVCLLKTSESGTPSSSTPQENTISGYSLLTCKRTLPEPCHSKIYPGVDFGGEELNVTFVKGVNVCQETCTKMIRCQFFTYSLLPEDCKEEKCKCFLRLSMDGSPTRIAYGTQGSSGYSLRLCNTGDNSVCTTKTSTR

| Compound | IC50 [1] | IC50 |
| --- | --- | --- |
| Cc1cc(N)nc(C)c1CNC(=O)c1cn(Cc2ccc3ncc(Cl)cc3c2)c2nc[nH]c(=O)c12 [Example 132, N-((6-amino-2,4-dimethylpyridin-3-yl)methyl)-7-((3-chloroquinolin-6-yl)methyl)-4-oxo-4,7-dihydro-3H-pyrrolo[2,3-d]pyrimidine-5-carboxamide] | > 10000 nM |  |
| Cc1cc(N)nc(C)c1CNC(=O)c1nn(Cc2ccc3ncc(Cl)cc3c2)c2c[nH]c(=O)cc12 [Example 124, N-((6-amino-2,4-dimethylpyridin-3-yl)methyl)-1-((3-chloroquinolin-6-yl)methyl)-5-oxo-5,6-dihydro-1H-pyrazolo[3,4-c]pyridine-3-carboxamide] | 100 to 1000 nM |  |
| Cc1cc(N)nc(C)c1CNC(=O)c1cc(C#N)nn1Cc1ccc2ncc(Cl)cc2c1 [Example 109, N-((6-amino-2,4-dimethylpyridin-3-yl)methyl)-1-((3-chloroquinolin-6-yl)methyl)-3-cyano-1H-pyrazole-5-carboxamide] | > 10000 nM |  |
| Cc1cc(N)nc(C)c1CNC(=O)c1oc(Cc2ccc3ncc(Cl)cc3c2)nc1C#N [Example 87, N-((6-amino-2,4-dimethylpyridin-3-yl)methyl)-2-((3-chloroquinolin-6-yl)methyl)-4-cyanooxazole-5-carboxamide] | < 100 nM |  |
| COc1ccc2c(n1)c(C(=O)NCc1c(C)cc(N)nc1C)nn2Cc1ccc2ncc(Cl)cc2c1 [Example 137, N-((6-amino-2,4-dimethylpyridin-3-yl)methyl)-1-((3-chloroquinolin-6-yl)methyl)-5-methoxy-1H-pyrazolo[4,3-b]pyridine-3-carboxamide] |  | 100 to 1000 nM |
| Cc1cc(N)nc(C)c1CNC(=O)c1nc(Br)n(Cc2ccc3ncc(Cl)cc3c2)n1 [Example 100, N-((6-amino-2,4-dimethylpyridin-3-yl)methyl)-5-bromo-1-((3-chloroquinolin-6-yl)methyl)-1H-1,2,4-triazole-3-carboxamide] | < 100 nM |  |
| O=C(NCc1cnc2[nH]cc(Cl)c2c1)c1nnc(Cc2ccc3ncc(Cl)cc3c2)o1 [Example 45, N-((3-chloro-1H-pyrrolo[2,3-b]pyridin-5-yl)methyl)-5-((3-chloroquinolin-6-yl)methyl)-1,3,4-oxadiazole-2-carboxamide] | 100 to 1000 nM |  |
| Cc1cc(N)nc(C)c1CNC(=O)c1cn(Cc2ccc3ncc(Cl)cc3c2)c2cc[nH]c(=O)c12 [Example 118, N-((6-amino-2,4-dimethylpyridin-3-yl)methyl)-1-((3-chloroquinolin-6-yl)methyl)-4-oxo-4,5-dihydro-1H-pyrrolo[3,2-c]pyridine-3-carboxamide] | > 10000 nM |  |
| N#Cc1nn(Cc2ccc3ncc(Cl)cc3c2)cc1C(=O)NCc1n[nH]c2ccc(Cl)cc12 [Example 48, N-((5-chloro-1H-indazol-3-yl)methyl)-1-((3-chloroquinolin-6-yl)methyl)-3-cyano-1H-pyrazole-4-carboxamide] | 100 to 1000 nM |  |
| Cc1cc(N)nc(C)c1CNC(=O)c1cn(Cc2ccc3ncc(Cl)cc3c2)nc1C(C)O (centres unmarked) [Example 94, N-((6-amino-2,4-dimethylpyridin-3-yl)methyl)-1-((3-chloroquinolin-6-yl)methyl)-3-(1-hydroxyethyl)-1H-pyrazole-4-carboxamide] | < 100 nM |  |
| Cc1cc(N)nc(C)c1CNC(=O)c1cn(Cc2ccc3ncc(Cl)cc3c2)c2ncnc(N)c12 [Example 34, 4-amino-7-(3-chloro-quinolin-6-ylmethyl)-7H-pyrrolo[2,3-d]pyrimidine-5-carboxylic acid (6-amino-2,4-dimethyl-pyridin-3-ylmethyl)-amide] | < 100 nM |  |
| Cc1cc(N)nc(C)c1CNC(=O)c1nc(C#N)n(Cc2ccc3ncc(Cl)cc3c2)n1 [Example 101, N-((6-amino-2,4-dimethylpyridin-3-yl)methyl)-1-((3-chloroquinolin-6-yl)methyl)-5-cyano-1H-1,2,4-triazole-3-carboxamide] | > 10000 nM |  |
| Cc1nc(N)ccc1CNC(=O)c1cn(Cc2ccc3ncc(Cl)cc3c2)nc1C#N [Example 77, N-((6-amino-2-methylpyridin-3-yl)methyl)-1-((3-chloroquinolin-6-yl)methyl)-3-cyano-1H-pyrazole-4-carboxamide] | < 100 nM |  |
| Cc1cc(N)nc(C)c1CNC(=O)c1nn(Cc2ccc3ncc(Cl)cc3c2)c2cccc(N)c12 [Example 33, 4-amino-N-((6-amino-2,4-dimethylpyridin-3-yl)methyl)-1-((3-chloroquinolin-6-yl)methyl)-1H-indazole-3-carboxamide] |  | 100 to 1000 nM |
| Cc1cc(N)nc(C)c1CNC(=O)c1cn(Cc2ccc3ncc(Cl)cc3c2)nc1C(F)F [Example 91, N-((6-amino-2,4-dimethylpyridin-3-yl)methyl)-1-((3-chloroquinolin-6-yl)methyl)-3-(difluoromethyl)-1H-pyrazole-4-carboxamide] | < 100 nM |  |
| Nc1nccc2cc(CNC(=O)c3nnc(Cc4ccc5ncc(Cl)cc5c4)o3)ccc12 [Example 46, N-((1-aminoisoquinolin-6-yl)methyl)-5-((3-chloroquinolin-6-yl)methyl)-1,3,4-oxadiazole-2-carboxamide] | 100 to 1000 nM |  |
| N#Cc1nn(Cc2ccc3ncc(Cl)cc3c2)cc1C(=O)NCc1ccc2c(N)nccc2c1 [Example 49, N-((1-aminoisoquinolin-6-yl)methyl)-1-((3-chloroquinolin-6-yl)methyl)-3-cyano-1H-pyrazole-4-carboxamide] | < 100 nM |  |
| Cc1nc(N)ccc1CNC(=O)c1cnc(Cc2ccc3ncc(Cl)cc3c2)o1 [Example 90, N-((6-amino-2-methylpyridin-3-yl)methyl)-2-((3-chloroquinolin-6-yl)methyl)oxazole-5-carboxamide] | < 100 nM |  |
| Cc1cc(N)nc(C)c1CNC(=O)c1nc(Cc2ccc3ncc(Cl)cc3c2)c2ccccn12 [Example 23, N-((6-amino-2,4-dimethylpyridin-3-yl)methyl)-1-((3-chloroquinolin-6-yl)methyl)imidazo[1,5-a]pyridine-3-carboxamide] | < 100 nM |  |
| Cc1cc(N)nc(C)c1CNC(=O)c1cn(Cc2ccc3ncc(Cl)cc3c2)c2ccccc12 [Example 11, N-((6-amino-2,4-dimethylpyridin-3-yl)methyl)-1-((3-chloroquinolin-6-yl)methyl)-1H-indole-3-carboxamide] | < 100 nM |  |
| Cc1cc(N)nc(C)c1CNC(=O)c1cn(Cc2ccc3ncc(Cl)cc3c2)nc1CF [Example 93, N-((6-amino-2,4-dimethylpyridin-3-yl)methyl)-1-((3-chloroquinolin-6-yl)methyl)-3-(fluoromethyl)-1H-pyrazole-4-carboxamide] | < 100 nM |  |
| Cc1cc(N)nc(C)c1CNC(=O)c1cn(Cc2ccc3ncc(Cl)cc3c2)c2ccnc(C#N)c12 [Example 133, N-((6-amino-2,4-dimethylpyridin-3-yl)methyl)-1-((3-chloroquinolin-6-yl)methyl)-4-cyano-1H-pyrrolo[3,2-c]pyridine-3-carboxamide] | < 100 nM |  |
| Cc1cc(N)nc(C)c1CNC(=O)c1cnc(Cc2ccc3ncc(Cl)cc3c2)n1C [Example 105, N-((6-amino-2,4-dimethylpyridin-3-yl)methyl)-2-((3-chloroquinolin-6-yl)methyl)-1-methyl-1H-imidazole-5-carboxamide] | 1000 to 10000 nM |  |
| Cc1cc(N)nc(C)c1CNC(=O)c1c(C(F)(F)F)nnn1Cc1ccc2ncc(Cl)cc2c1 [Example 141, N-((6-amino-2,4-dimethylpyridin-3-yl)methyl)-1-((3-chloroquinolin-6-yl)methyl)-4-(trifluoromethyl)-1H-1,2,3-triazole-5-carboxamide] | > 10000 nM |  |
| O=C(NCc1ccc2[nH]cc(Cl)c2c1F)c1nnc(Cc2ccc3ncc(Cl)cc3c2)o1 [Example 43, N-((3-chloro-4-fluoro-1H-indol-5-yl)methyl)-5-((3-chloroquinolin-6-yl)methyl)-1,3,4-oxadiazole-2-carboxamide] | 100 to 1000 nM |  |
| N#Cc1nn(Cc2cc(F)c3ncc(Cl)cc3c2)cc1C(=O)NCc1n[nH]c2ccc(Cl)cc12 [Example 55, N-((5-chloro-1H-indazol-3-yl)methyl)-1-((3-chloro-8-fluoroquinolin-6-yl)methyl)-3-cyano-1H-pyrazole-4-carboxamide] | 100 to 1000 nM |  |
| N#Cc1nn(Cc2cc(F)c3ncc(Cl)cc3c2)cc1C(=O)NCc1cnc2[nH]cc(Cl)c2c1 [Example 56, N-((3-chloro-1H-pyrrolo[2,3-b]pyridin-5-yl)methyl)-1-((3-chloro-8-fluoroquinolin-6-yl)methyl)-3-cyano-1H-pyrazole-4-carboxamide] | < 100 nM |  |
| Cc1cc(N)nc(C)c1CNC(=O)c1nc(Cc2ccc3ncc(Cl)cc3c2)nn1C [Example 99, N-((6-amino-2,4-dimethylpyridin-3-yl)methyl)-3-((3-chloroquinolin-6-yl)methyl)-1-methyl-1H-1,2,4-triazole-5-carboxamide] | < 100 nM |  |
| Cc1cc(N)nc(C)c1CNC(=O)c1cn(Cc2ccc3ncc(Cl)cc3c2)c(C#N)n1 [Example 113, N-((6-amino-2,4-dimethylpyridin-3-yl)methyl)-1-((3-chloroquinolin-6-yl)methyl)-2-cyano-1H-imidazole-4-carboxamide] | 100 to 1000 nM |  |
